In patent US20140155389A1, “BICYCLIC INHIBITORS OF ALK” (ABBVIE INC., priority 2011, published 2014):

Target: T1, ALK (Homo sapiens, UniProt Q9UM73)
T1 construct: purchased Millipore
Test: ALK kinase assay (HTRF)
Format: biochemical
Conditions: apparent Ki from IC50 by Cheng-Prusoff; ALK (Millipore) 3 nM or 4 nM, 50 μM ATP, 1 h at room temperature; read-out: HTRF_ALK Human - Ki

T1 sequence (Q9UM73 19-1620): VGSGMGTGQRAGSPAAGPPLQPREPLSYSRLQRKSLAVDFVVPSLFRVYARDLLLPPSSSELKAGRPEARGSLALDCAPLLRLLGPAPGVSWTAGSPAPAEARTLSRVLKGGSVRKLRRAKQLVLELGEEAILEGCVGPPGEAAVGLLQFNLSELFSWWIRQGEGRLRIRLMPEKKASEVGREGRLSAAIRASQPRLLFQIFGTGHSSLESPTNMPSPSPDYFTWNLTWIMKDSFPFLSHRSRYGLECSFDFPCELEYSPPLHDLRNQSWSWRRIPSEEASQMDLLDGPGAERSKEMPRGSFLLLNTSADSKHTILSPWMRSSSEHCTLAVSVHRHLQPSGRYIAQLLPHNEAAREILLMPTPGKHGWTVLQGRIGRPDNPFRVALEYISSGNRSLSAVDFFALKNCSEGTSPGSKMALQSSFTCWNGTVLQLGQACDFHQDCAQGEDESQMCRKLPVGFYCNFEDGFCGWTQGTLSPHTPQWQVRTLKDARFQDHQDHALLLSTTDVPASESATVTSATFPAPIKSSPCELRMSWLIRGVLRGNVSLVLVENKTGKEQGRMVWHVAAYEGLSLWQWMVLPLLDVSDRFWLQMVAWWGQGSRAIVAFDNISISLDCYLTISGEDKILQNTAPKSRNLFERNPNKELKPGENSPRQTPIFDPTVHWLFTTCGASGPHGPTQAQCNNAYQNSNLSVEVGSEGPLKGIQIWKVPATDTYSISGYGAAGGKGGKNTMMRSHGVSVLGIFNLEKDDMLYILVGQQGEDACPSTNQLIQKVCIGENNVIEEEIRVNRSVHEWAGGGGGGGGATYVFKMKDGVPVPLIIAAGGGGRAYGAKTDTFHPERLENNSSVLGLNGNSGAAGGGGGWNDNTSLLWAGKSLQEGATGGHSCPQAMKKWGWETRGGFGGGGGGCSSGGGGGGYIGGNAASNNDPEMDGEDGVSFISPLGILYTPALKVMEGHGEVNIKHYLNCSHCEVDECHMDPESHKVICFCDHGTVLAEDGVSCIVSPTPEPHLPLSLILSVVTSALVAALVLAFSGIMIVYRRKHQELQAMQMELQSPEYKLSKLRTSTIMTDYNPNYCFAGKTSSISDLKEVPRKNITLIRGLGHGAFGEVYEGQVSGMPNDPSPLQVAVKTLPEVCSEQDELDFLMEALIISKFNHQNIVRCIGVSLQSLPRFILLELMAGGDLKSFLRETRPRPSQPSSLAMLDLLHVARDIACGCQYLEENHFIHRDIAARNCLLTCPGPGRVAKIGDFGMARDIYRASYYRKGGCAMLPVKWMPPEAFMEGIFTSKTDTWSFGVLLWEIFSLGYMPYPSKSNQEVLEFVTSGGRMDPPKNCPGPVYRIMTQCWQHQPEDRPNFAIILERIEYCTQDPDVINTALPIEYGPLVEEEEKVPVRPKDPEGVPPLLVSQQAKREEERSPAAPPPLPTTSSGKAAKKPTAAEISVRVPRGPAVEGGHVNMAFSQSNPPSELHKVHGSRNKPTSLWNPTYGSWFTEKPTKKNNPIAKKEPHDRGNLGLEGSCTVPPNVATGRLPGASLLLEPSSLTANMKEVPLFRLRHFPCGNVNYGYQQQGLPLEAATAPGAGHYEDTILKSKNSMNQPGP

| Structure (SMILES) | Ki |
| --- | --- |
| O=c1[nH]ncc2cc(Cc3c(Cl)cccc3Cl)nc(Nc3ccc(N4CCNCC4)cc3Br)c12 [Example 61, 5-{[2-bromo-4-(piperazin-1-yl)phenyl]amino}-7-(2,6-dichlorobenzyl)pyrido[3,4-d]pyridazin-4(3H)-one] | 2 nM |
| COc1cc(N2CCNCC2)ccc1Nc1nc(Oc2c(Cl)cccc2Cl)cc2cn[nH]c(=O)c12 [Example 63, 7-(2,6-dichlorophenoxy)-5-{[2-methoxy-4-(piperazin-1-yl)phenyl]amino}pyrido[3,4-d]pyridazin-4(3H)-one] | 1 nM |
| Oc1nncc2cc(Cc3c(Cl)cccc3Cl)nc(Nc3ccc(N4CCNCC4)cc3OC(F)(F)F)c12 [Example 64, 7-(2,6-dichlorobenzyl)-5-{[4-(piperazin-1-yl)-2-(trifluoromethoxy)phenyl]amino}pyrido[3,4-d]pyridazin-4-ol] | 21 nM |
| COc1cc(N2CCNCC2)ccc1Nc1nc(Nc2c(F)ccc(Cl)c2Cl)cc2cn[nH]c(=O)c12 [Example 65, 7-[(2,3-dichloro-6-fluorophenyl)amino]-5-{[2-methoxy-4-(piperazin-1-yl)phenyl]amino}pyrido[3,4-d]pyridazin-4(3H)-one] | 1 nM |
| COc1cc(N2CCN3CCCC3C2)ccc1Nc1nc(Cc2c(Cl)cccc2Cl)cc2cn[nH]c(=O)c12 (centres unmarked) [Example 66, 7-(2,6-dichlorobenzyl)-5-{[4-(hexahydropyrrolo[1,2-a]pyrazin-2(1H)-yl)-2-methoxyphenyl]amino}pyrido[3,4-d]pyridazin-4(3H)-one] | 10 nM |
| COc1cc(N2CCNCC2)ccc1Nc1cc(Cc2c(Cl)cccc2Cl)nc2cn[nH]c(=O)c12 [Example 70, 2-(2,6-dichlorobenzyl)-4-{[2-methoxy-4-(piperazin-1-yl)phenyl]amino}pyrido[2,3-d]pyridazin-5(6H)-one] | 1 nM |
| COc1cc(N2CCNCC2)ccc1Nc1nc(Nc2c(F)cc(F)cc2Cl)cc2cnnc(O)c12 [Example 71, 7-[(2-chloro-4,6-difluorophenyl)amino]-5-{[2-methoxy-4-(piperazin-1-yl)phenyl]amino}pyrido[3,4-d]pyridazin-4-ol] | 1 nM |
| COc1cc(N2CCNCC2)c(C)cc1Nc1nc(Cc2c(Cl)cccc2Cl)cc2cn[nH]c(=O)c12 [Example 72, 7-(2,6-dichlorobenzyl)-5-{[2-methoxy-5-methyl-4-(piperazin-1-yl)phenyl]amino}pyrido[3,4-d]pyridazin-4(3H)-one] | 12 nM |
| Cc1cc(Nc2nc(Cc3c(Cl)cccc3Cl)cc3cn[nH]c(=O)c23)c(F)cc1N1CCNCC1 [Example 73, 7-(2,6-dichlorobenzyl)-5-{[2-fluoro-5-methyl-4-(piperazin-1-yl)phenyl]amino}pyrido[3,4-d]pyridazin-4(3H)-one] | 1 nM |
| COc1cc2c(cc1Nc1cc(Cc3c(Cl)cccc3Cl)cc3cn[nH]c(=O)c13)CNCC2 [Example 74, 6-(2,6-dichlorobenzyl)-8-[(6-methoxy-1,2,3,4-tetrahydroisoquinolin-7-yl)amino]phthalazin-1(2H)-one] | 4 nM |
| COc1cc(N2CCNCC2)ccc1Nc1nc(Oc2c(F)cccc2F)cc2cn[nH]c(=O)c12 [Example 75, 7-(2,6-difluorophenoxy)-5-{[2-methoxy-4-(piperazin-1-yl)phenyl]amino}pyrido[3,4-d]pyridazin-4(3H)-one] | 4 nM |
| COc1cc(N2CCNCC2)ccc1Nc1nc(Nc2ccc(Cl)c(Cl)c2Cl)cc2cn[nH]c(=O)c12 [Example 77, 5-{[2-methoxy-4-(piperazin-1-yl)phenyl]amino}-7-[(2,3,4-trichlorophenyl)amino]pyrido[3,4-d]pyridazin-4(3H)-one] | 4 nM |
| COc1cc(N2CCNCC2)ccc1Nc1nc(Oc2cccc(Cl)c2Cl)cc2cn[nH]c(=O)c12 [Example 79, 7-(2,3-dichlorophenoxy)-5-{[2-methoxy-4-(piperazin-1-yl)phenyl]amino}pyrido[3,4-d]pyridazin-4(3H)-one] | 5 nM |
| COc1cc(N2CCNCC2)ccc1Nc1nc(Oc2ccncc2Cl)cc2cn[nH]c(=O)c12 [Example 81, 7-[(3-chloropyridin-4-yl)oxy]-5-{[2-methoxy-4-(piperazin-1-yl)phenyl]amino}pyrido[3,4-d]pyridazin-4(3H)-one] | > 470 nM |
| COc1cc(N2CCNCC2)ccc1Nc1nc(Oc2cccc(C)c2C)cc2cnnc(O)c12 [Example 82, 7-(2,3-dimethylphenoxy)-5-{[2-methoxy-4-(piperazin-1-yl)phenyl]amino}pyrido[3,4-d]pyridazin-4-ol] | 4 nM |
| COc1cc(N2CCNCC2)ccc1Nc1nc(Oc2ccc(Cl)c(Cl)c2Cl)cc2cnnc(O)c12 [Example 84, 5-{[2-methoxy-4-(piperazin-1-yl)phenyl]amino}-7-(2,3,4-trichlorophenoxy)pyrido[3,4-d]pyridazin-4-ol] | 5 nM |
| COc1cc(N2CCNCC2)ccc1Nc1nc(N[C@H]2CC[C@H](O)CC2)cc2cnnc(O)c12 [Example 86, 7-[(trans-4-hydroxycyclohexyl)amino]-5-{[2-methoxy-4-(piperazin-1-yl)phenyl]amino}pyrido[3,4-d]pyridazin-4-ol] | 2 nM |
| COc1cc(N2CCNCC2)ccc1Nc1nc(OC2CCCC2)cc2cnnc(O)c12 [Example 87, 7-(cyclopentyloxy)-5-{[2-methoxy-4-(piperazin-1-yl)phenyl]amino}pyrido[3,4-d]pyridazin-4-ol] | 4 nM |
| COc1cc2c(cc1Nc1nc(Cc3c(Cl)cccc3Cl)cc3cn[nH]c(=O)c13)CCNC2 [Example 88, 7-(2,6-dichlorobenzyl)-5-[(7-methoxy-1,2,3,4-tetrahydroisoquinolin-6-yl)amino]pyrido[3,4-d]pyridazin-4(3H)-one] | 4 nM |
| COc1cc(N2CCNCC2)ccc1Nc1cc(Oc2ccccc2Cl)nc2cn[nH]c(=O)c12 [Example 89, 2-(2-chlorophenoxy)-4-{[2-methoxy-4-(piperazin-1-yl)phenyl]amino}pyrido[2,3-d]pyridazin-5(6H)-one] | 15 nM |
| Oc1nncc2cc(N3CCC(F)CC3)nc(Nc3ccc(CN4CCCC4)cc3Cl)c12 [Example 90, 5-{[2-chloro-4-(pyrrolidin-1-ylmethyl)phenyl]amino}-7-(4-fluoropiperidin-1-yl)pyrido[3,4-d]pyridazin-4-ol] | 7 nM |
| Oc1nncc2cc(NCC3CC3)nc(Nc3ccc(CN4CCCC4)cc3Cl)c12 [Example 93, 5-{[2-chloro-4-(pyrrolidin-1-ylmethyl)phenyl]amino}-7-[(cyclopropylmethyl)amino]pyrido[3,4-d]pyridazin-4-ol] | 4 nM |
| COc1cc(CN2CCOCC2)ccc1Nc1cc(Cc2ccccc2Cl)nc2cnnc(O)c12 [Example 94, 2-(2-chlorobenzyl)-4-{[2-methoxy-4-(morpholin-4-ylmethyl)phenyl]amino}pyrido[2,3-d]pyridazin-5-ol] | 51 nM |
| CCOc1cc(CN2CCCC2)ccc1Nc1nc(Oc2ccccc2Cl)cc2cn[nH]c(=O)c12 [Example 95, 7-(2-chlorophenoxy)-5-{[2-ethoxy-4-(pyrrolidin-1-ylmethyl)phenyl]amino}pyrido[3,4-d]pyridazin-4(3H)-one] | 138 nM |

Second part, the molecule after the results:

| Ki | Structure (SMILES) |
| --- | --- |
| 2 nM | COc1cc(N2CCNCC2)ccc1Nc1nc(Oc2ccccc2Cl)cc2cn[nH]c(=O)c12 [Example 62, 7-(2-chlorophenoxy)-5-{[2-methoxy-4-(piperazin-1-yl)phenyl]amino}pyrido[3,4-d]pyridazin-4(3H)-one] |
| 2 nM | COc1cc(N2CCNCC2)ccc1Nc1nc(Nc2ccc(F)c(Cl)c2Cl)cc2cnnc(O)c12 [Example 67, 7-[(2,3-dichloro-4-fluorophenyl)amino]-5-{[2-methoxy-4-(piperazin-1-yl)phenyl]amino}pyrido[3,4-d]pyridazin-4-ol] |
| 2 nM | COc1cc(N2CCNCC2)ccc1Nc1cc(Nc2c(Cl)cccc2Cl)nc2cn[nH]c(=O)c12 [Example 68, 2-[(2,6-dichlorophenyl)amino]-4-{[2-methoxy-4-(piperazin-1-yl)phenyl]amino}pyrido[2,3-d]pyridazin-5(6H)-one] |
| 1 nM | Cc1c(Nc2nc(Cc3c(Cl)cccc3Cl)cc3cn[nH]c(=O)c23)ccc(N2CCNCC2)c1C [Example 69, 7-(2,6-dichlorobenzyl)-5-{[2,3-dimethyl-4-(piperazin-1-yl)phenyl]amino}pyrido[3,4-d]pyridazin-4(3H)-one] |
| 4 nM | COc1cc(N2CCNCC2)ccc1Nc1nc(Oc2ccccc2F)cc2cnnc(O)c12 [Example 76, 7-(2-fluorophenoxy)-5-{[2-methoxy-4-(piperazin-1-yl)phenyl]amino}pyrido[3,4-d]pyridazin-4-ol] |
| 4 nM | COc1cc(N2CCNCC2)ccc1Nc1nc(Oc2cccc(F)c2F)cc2cnnc(O)c12 [Example 78, 7-(2,3-difluorophenoxy)-5-{[2-methoxy-4-(piperazin-1-yl)phenyl]amino}pyrido[3,4-d]pyridazin-4-ol] |
| 1 nM | COc1cc(N2CCNCC2)ccc1Nc1nc(Oc2c(Cl)cc(F)cc2Cl)cc2cn[nH]c(=O)c12 [Example 80, 7-(2,6-dichloro-4-fluorophenoxy)-5-{[2-methoxy-4-(piperazin-1-yl)phenyl]amino}pyrido[3,4-d]pyridazin-4(3H)-one] |
| > 470 nM | COc1cc(N2CCNCC2)ccc1Nc1nc(Oc2ccncc2F)cc2cnnc(O)c12 [Example 83, 7-[(3-fluoropyridin-4-yl)oxy]-5-{[2-methoxy-4-(piperazin-1-yl)phenyl]amino}pyrido[3,4-d]pyridazin-4-ol] |
| 5 nM | COc1cc(N2CCNCC2)ccc1Nc1nc(Oc2ccc(Cl)cc2Cl)cc2cn[nH]c(=O)c12 [Example 85, 7-(2,4-dichlorophenoxy)-5-{[2-methoxy-4-(piperazin-1-yl)phenyl]amino}pyrido[3,4-d]pyridazin-4(3H)-one] |
| 55 nM | COc1cc2c(cc1Nc1cc(Cc3ccccc3Cl)nc3cnnc(O)c13)CNCC2 [Example 91, 2-(2-chlorobenzyl)-4-[(6-methoxy-1,2,3,4-tetrahydroisoquinolin-7-yl)amino]pyrido[2,3-d]pyridazin-5-ol] |
| 15 nM | COc1cc(CN2CCNCC2)ccc1Nc1cc(Cc2ccccc2Cl)nc2cn[nH]c(=O)c12 [Example 92, 2-(2-chlorobenzyl)-4-{[2-methoxy-4-(piperazin-1-ylmethyl)phenyl]amino}pyrido[2,3-d]pyridazin-5(6H)-one] |
